Activity calls are given as the source filed them.

Test [1] addresses Voltage-gated inwardly rectifying potassium channel KCNH2 (Homo sapiens, UniProt Q12809). The test can be described thus: hERG protection from proarrhythmic block, potency, dose response, cell-based, thallium flux (AID 2121). In kind it is ADME. (In general: The hERG channel carries a current that helps repolarise heart muscle cells.)
Test [2] has as its target 5-hydroxytryptamine receptor 1A (Homo sapiens, UniProt P08908). In kind it is functional.
Test [3] is described as follows: inhibitors of intracellular T. cruzi replication, confirmation, NIH3T3 host cells, beta-gal luminescence (AID 2044).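 Note: intracellular parasites grown in NIH/3T3 mouse fibroblasts as host cells; luminescent beta-galactosidase reporter signal from transgenic T. cruzi replicating inside host cells; inhibitors lower the luminescence signal.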 The class given is functional, cell-based.
Test [4] in a line: cytotoxicity toward NIH3T3 fibroblasts, dose response, counter-screen, cell-based, ATP luminescence, mouse fibroblasts (AID 2010).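 Note: cells exposed to compound for about 90 hours before reading.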 In kind it is functional. (In general: Counterscreens check selectivity or assay interference.)
A short description of test [5]: cytotoxicity toward DRD oncogenic fibroblasts, dose response, cell-based, non-viral oncogenic, luminescence (AID 1934). The conditions noted are these: Homo sapiens. The class given is functional.
For test [6], the system named is BJ. The test can be described thus: cytotoxicity toward BJ-TERT fibroblasts, dose response, cell-based, RAS-independent, luminescence (AID 1933). In kind it is functional. The conditions noted are these: Homo sapiens.
Test [7] is described as follows: Luminescent dose response cell-based high throughput screening assay for inhibitors of the Janus kinase 2 mutant JAK2V617F. [Related pubchem assays: 1446 (Primary screen.), 1521 (Confirmation assay.), 1486 (Counter screen.)]. The class given is functional.
For test [8], the system named is BJ. Nature of the test: cells. In kind it is functional, cell-based. The conditions noted are these: Homo sapiens.
The test system of test [9] is BJ. Nature of the test: cytotoxicity toward BJ-TERT-LT-ST fibroblasts, dose response, cell-based, RAS-independent, luminescence (AID 1935).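 Note: BJ fibroblasts immortalized with TERT plus LT and ST oncogenes.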 The class given is functional. The conditions noted are these: Homo sapiens.
In test [10] the test system is Vero. Nature of the test: cytotoxicity of synthesized analogs in Vero 76, SAR follow-up, cytotoxicity control for West Nile virus antiviral project, Vero 76 cells (AID 2414). The class given is functional. The conditions noted are these: Chlorocebus sabaeus.
Test [11] deals with Vero. The test can be described thus: cytotoxicity of synthesized analogs in Vero cells, SAR follow-up, cytotoxicity control for West Nile virus antiviral project, cell-based, set II (AID 2402). The class given is functional. The conditions noted are these: Chlorocebus sabaeus.
Test [12] has as its target Diphosphomevalonate decarboxylase (Streptococcus pneumoniae serotype 2 (strain D39 / NCTC 7466), UniProt Q9FD53). Nature of the test: S. pneumoniae DPM-DC inhibition retest, confirmation, biochemical, cuvette format, coupled NADH fluorescence (AID 1028). The class given is functional.
In test [13] the target is Peroxisome proliferator-activated receptor gamma/Nuclear receptor coactivator 3 (Homo sapiens, UniProt P37231). The test can be described thus: TR-FRET dose response biochemical High Throughput Screening assay for agonists of the steroid receptor coactivator 3 (SRC-3) recruitment by the peroxisome proliferator-activated receptor gamma (PPAR gamma): non-selective agonists. [Related pubchem assays: 1301 (Confirmation screen.), 1048 (Primary screen.)]. In kind it is functional. Background: TR-FRET usually uses a lanthanide donor and a delayed reading to cut background.

Test [14] addresses Peroxisome proliferator-activated receptor gamma/Nuclear receptor coactivator 1 (Homo sapiens, UniProt P37231). The test can be described thus: TR-FRET dose response biochemical High Throughput Screening assay for agonists of the steroid receptor coactivator 1 (SRC-1) recruitment by the peroxisome proliferator-activated receptor gamma (PPAR gamma): non-selective agonists. [Related pubchem assays (depositor defined):AID1300, AID1808, AID504735, AID631]. In kind it is protein assay.

Test [15] has as its target Ubiquitin carboxyl-terminal hydrolase BAP1 (Homo sapiens, UniProt Q92560). The test can be described thus: BAP1 deubiquitinase inhibitors, dose response, biochemical (AID 714). The class given is functional.
In test [16] the target is Peroxisome proliferator-activated receptor gamma/Nuclear receptor coactivator 2 (Homo sapiens, UniProt P37231). Nature of the test: TR-FRET dose response biochemical High Throughput Screening assay for agonists of the steroid receptor coactivator 2 (SRC-2) recruitment by the peroxisome proliferator-activated receptor gamma (PPAR gamma): non-selective agonists. [Related pubchem assays: 1297, 1032 ]. In kind it is functional.

The next test has as its target Nonstructural protein 1 (Influenza A virus, UniProt Q194T2). In kind it is functional, Influenza A virus (A/California/07/2009(H1N1)).
The subject of test [17] is BJ. Nature of the test: cytotoxicity toward Ras-transformed BJeLR fibroblasts, dose response, cell-based, alamar blue fluorescence, cherrypicked samples (AID 2631).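 Note: confirmatory dose-response assay in RAS-dependent BJ fibroblasts engineered with TERT, LT and ST, with cytotoxicity read by fluorescence.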 In kind it is functional. The conditions noted are these: Homo sapiens.
Another test has as its target Beta-galactosidase (Escherichia coli, UniProt Q8VNN2). Nature of the test: PubChem AID 485352. In kind it is functional.
The subject of test [18] is Vero. Nature of the test: cells. The class given is functional, cell-based. The conditions noted are these: Chlorocebus sabaeus.
Test [19] addresses T1, Type-1 angiotensin II receptor (Homo sapiens, UniProt P30556).
T1 sequence (P30556 whole entry): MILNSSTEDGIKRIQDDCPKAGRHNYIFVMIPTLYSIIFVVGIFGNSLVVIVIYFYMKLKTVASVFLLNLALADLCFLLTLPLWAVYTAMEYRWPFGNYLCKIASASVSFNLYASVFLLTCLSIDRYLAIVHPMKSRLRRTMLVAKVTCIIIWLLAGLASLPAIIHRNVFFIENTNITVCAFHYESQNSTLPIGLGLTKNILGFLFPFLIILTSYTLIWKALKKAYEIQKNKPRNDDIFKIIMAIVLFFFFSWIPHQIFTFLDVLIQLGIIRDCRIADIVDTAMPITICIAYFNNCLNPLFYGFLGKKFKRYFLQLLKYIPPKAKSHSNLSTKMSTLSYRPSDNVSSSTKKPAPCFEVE
The test can be described thus: AT1 receptor antagonists, dose response, selectivity assay for APJ receptor antagonist project, cell-based, uHTS hits (AID 463214).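 Note: antagonist potency against angiotensin II stimulated AT1 response.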 The class given is functional.

Test [20] has as its system Vero. The test can be described thus: cells. The class given is functional. The conditions noted are these: Chlorocebus sabaeus.
The subject of a further test is INS1. The test can be described thus: beta cell apoptosis inhibitors, cytokine rescue, dose response, luminescence, retest (AID 449756).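 Note: cell death triggered by IL-1 beta plus TNF-alpha plus IFN-gamma mixture; protective hits raise ATP signal compared with cytokine alone wells.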 In kind it is functional, cell-based. The conditions noted are these: Rattus norvegicus.
Test [21] concerns Vero. The test can be described thus: host cell cytotoxicity of antiviral hits, dose response, cytotoxicity control for West Nile virus antiviral project, secondary assay (AID 1650). The class given is functional. The conditions noted are these: Chlorocebus sabaeus.
Test [22] is described as follows: Luminescence-based dose response cell-based high throughput screening assay for cytotoxic compounds using the IEC-6 intestinal epithelial cell line. [Related pubchem assays: 1858 (Summary AID.), 1825 (Counterscreen.), 1907 (Confirmation screen.)]. The class given is functional.
The target in another test is T2, Estrogen receptor (Homo sapiens, UniProt P03372).
T2 sequence (P03372 whole entry): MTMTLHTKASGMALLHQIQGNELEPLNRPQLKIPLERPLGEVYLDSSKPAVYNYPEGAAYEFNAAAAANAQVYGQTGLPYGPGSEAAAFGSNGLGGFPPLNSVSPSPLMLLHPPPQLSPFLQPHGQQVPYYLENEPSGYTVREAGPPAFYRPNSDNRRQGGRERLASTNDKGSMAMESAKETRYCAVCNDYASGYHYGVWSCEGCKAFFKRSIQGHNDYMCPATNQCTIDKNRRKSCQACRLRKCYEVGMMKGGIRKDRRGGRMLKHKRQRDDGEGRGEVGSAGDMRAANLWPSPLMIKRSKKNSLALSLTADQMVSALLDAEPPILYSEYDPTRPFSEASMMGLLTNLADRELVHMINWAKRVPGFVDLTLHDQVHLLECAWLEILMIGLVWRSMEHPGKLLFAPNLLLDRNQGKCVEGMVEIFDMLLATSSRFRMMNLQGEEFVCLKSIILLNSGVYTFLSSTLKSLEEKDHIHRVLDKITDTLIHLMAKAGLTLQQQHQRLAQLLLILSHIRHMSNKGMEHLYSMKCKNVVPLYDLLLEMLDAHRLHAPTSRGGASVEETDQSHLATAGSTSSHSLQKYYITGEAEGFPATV

Another test concerns the target Estrogen receptor beta (Homo sapiens, UniProt Q92731).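 Note: recombinant ER-beta bound to coactivator SRC1 peptide in presence of estradiol agonist; inhibitors block coactivator peptide binding and lower the FRET signal.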

Chain of 5-hydroxytryptamine receptor 1A (P08908 whole entry): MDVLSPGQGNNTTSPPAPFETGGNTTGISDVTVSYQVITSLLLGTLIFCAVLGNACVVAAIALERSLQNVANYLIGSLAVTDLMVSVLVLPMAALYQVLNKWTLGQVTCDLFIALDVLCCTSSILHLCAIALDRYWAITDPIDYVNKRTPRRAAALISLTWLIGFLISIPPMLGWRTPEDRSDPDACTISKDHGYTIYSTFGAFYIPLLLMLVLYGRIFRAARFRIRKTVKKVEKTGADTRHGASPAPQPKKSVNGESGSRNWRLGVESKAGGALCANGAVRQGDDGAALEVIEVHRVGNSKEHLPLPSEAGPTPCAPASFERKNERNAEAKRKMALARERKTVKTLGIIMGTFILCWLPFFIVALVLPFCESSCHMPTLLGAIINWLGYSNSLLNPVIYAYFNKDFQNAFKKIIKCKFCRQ
Chain of Estrogen receptor beta (Q92731 whole entry): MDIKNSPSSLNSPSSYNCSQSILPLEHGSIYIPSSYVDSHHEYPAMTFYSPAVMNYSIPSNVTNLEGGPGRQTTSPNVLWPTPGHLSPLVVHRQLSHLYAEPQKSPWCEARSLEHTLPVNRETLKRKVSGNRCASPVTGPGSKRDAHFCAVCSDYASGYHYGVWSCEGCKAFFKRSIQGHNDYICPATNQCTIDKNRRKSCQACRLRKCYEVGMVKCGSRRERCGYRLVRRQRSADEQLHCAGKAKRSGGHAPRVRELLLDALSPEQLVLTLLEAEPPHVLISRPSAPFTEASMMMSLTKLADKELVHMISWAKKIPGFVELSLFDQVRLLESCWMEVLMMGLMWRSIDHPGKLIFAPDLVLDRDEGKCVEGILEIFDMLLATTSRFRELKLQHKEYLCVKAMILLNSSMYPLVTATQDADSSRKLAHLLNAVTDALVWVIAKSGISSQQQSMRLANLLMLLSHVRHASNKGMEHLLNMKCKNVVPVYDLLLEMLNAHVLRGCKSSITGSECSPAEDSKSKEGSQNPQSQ
Chain of Beta-galactosidase (Q8VNN2 whole entry): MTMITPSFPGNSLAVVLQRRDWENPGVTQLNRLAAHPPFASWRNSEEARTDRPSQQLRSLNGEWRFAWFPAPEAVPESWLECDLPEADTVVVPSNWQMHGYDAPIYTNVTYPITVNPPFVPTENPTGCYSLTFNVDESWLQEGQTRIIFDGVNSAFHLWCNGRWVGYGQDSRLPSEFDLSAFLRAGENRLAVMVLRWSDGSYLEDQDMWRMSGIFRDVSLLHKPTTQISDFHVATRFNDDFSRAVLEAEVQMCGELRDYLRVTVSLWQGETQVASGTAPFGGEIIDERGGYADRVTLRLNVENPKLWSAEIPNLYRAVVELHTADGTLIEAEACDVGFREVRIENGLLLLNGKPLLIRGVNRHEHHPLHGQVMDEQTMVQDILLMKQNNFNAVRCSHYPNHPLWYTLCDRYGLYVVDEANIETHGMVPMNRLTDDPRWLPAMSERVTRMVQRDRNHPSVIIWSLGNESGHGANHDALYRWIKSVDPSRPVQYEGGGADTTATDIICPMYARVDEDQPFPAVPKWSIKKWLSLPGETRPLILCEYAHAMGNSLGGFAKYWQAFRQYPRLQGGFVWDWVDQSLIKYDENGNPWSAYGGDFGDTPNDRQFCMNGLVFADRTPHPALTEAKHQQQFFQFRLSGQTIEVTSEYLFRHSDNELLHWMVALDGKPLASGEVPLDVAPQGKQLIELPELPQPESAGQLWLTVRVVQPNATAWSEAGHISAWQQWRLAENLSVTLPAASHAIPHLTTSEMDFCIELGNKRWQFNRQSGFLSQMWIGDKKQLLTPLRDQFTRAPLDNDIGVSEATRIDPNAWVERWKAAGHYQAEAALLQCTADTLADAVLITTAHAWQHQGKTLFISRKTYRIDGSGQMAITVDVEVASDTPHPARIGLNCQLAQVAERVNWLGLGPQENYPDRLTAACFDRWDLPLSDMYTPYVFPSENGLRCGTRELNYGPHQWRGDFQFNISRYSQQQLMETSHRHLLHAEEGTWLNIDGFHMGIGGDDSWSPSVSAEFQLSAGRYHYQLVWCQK
Chain of Voltage-gated inwardly rectifying potassium channel KCNH2 (Q12809 whole entry): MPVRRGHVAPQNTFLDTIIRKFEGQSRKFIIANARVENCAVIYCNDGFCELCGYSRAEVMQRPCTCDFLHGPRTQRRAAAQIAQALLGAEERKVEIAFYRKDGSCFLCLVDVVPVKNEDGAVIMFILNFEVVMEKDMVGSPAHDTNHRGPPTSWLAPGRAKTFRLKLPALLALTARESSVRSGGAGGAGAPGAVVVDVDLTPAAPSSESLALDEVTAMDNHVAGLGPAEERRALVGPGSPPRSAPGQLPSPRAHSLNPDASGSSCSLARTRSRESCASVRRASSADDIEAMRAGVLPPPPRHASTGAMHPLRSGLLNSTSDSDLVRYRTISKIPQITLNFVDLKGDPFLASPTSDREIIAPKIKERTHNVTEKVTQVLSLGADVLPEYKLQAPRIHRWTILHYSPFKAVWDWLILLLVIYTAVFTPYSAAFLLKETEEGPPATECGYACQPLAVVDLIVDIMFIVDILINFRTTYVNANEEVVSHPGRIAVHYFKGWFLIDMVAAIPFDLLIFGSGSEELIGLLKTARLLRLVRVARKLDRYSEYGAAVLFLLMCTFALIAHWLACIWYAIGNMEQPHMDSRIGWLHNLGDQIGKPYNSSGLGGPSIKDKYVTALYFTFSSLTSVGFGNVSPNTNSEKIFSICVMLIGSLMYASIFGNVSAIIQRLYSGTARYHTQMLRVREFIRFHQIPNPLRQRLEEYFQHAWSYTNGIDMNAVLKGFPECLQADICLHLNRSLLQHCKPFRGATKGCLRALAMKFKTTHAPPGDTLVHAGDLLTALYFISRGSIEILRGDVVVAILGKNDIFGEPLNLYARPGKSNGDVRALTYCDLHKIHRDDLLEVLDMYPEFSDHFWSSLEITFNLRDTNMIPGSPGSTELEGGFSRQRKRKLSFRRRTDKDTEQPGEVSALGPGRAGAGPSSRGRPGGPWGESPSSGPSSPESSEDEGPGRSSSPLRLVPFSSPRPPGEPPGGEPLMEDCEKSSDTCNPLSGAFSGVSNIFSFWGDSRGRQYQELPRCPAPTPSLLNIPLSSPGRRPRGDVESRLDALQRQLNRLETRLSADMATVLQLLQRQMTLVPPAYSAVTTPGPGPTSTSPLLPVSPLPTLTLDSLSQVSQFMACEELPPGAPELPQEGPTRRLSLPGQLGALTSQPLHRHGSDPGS
Chain of Peroxisome proliferator-activated receptor gamma/Nuclear receptor coactivator 1 (P37231 whole entry): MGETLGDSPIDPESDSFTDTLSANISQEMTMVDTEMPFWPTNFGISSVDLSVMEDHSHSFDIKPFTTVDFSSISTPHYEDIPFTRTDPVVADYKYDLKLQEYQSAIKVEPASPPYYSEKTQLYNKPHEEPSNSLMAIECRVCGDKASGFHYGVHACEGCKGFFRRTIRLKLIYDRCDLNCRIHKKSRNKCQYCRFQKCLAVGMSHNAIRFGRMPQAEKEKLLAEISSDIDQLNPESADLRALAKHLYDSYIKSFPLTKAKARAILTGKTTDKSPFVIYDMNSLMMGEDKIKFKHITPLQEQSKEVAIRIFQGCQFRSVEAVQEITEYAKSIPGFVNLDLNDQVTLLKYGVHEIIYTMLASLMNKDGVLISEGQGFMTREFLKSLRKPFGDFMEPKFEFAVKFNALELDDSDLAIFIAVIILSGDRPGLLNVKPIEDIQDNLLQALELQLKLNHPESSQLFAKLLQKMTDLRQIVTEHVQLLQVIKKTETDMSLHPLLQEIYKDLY
Chain of Peroxisome proliferator-activated receptor gamma/Nuclear receptor coactivator 1 (Q15788 whole entry, further chain): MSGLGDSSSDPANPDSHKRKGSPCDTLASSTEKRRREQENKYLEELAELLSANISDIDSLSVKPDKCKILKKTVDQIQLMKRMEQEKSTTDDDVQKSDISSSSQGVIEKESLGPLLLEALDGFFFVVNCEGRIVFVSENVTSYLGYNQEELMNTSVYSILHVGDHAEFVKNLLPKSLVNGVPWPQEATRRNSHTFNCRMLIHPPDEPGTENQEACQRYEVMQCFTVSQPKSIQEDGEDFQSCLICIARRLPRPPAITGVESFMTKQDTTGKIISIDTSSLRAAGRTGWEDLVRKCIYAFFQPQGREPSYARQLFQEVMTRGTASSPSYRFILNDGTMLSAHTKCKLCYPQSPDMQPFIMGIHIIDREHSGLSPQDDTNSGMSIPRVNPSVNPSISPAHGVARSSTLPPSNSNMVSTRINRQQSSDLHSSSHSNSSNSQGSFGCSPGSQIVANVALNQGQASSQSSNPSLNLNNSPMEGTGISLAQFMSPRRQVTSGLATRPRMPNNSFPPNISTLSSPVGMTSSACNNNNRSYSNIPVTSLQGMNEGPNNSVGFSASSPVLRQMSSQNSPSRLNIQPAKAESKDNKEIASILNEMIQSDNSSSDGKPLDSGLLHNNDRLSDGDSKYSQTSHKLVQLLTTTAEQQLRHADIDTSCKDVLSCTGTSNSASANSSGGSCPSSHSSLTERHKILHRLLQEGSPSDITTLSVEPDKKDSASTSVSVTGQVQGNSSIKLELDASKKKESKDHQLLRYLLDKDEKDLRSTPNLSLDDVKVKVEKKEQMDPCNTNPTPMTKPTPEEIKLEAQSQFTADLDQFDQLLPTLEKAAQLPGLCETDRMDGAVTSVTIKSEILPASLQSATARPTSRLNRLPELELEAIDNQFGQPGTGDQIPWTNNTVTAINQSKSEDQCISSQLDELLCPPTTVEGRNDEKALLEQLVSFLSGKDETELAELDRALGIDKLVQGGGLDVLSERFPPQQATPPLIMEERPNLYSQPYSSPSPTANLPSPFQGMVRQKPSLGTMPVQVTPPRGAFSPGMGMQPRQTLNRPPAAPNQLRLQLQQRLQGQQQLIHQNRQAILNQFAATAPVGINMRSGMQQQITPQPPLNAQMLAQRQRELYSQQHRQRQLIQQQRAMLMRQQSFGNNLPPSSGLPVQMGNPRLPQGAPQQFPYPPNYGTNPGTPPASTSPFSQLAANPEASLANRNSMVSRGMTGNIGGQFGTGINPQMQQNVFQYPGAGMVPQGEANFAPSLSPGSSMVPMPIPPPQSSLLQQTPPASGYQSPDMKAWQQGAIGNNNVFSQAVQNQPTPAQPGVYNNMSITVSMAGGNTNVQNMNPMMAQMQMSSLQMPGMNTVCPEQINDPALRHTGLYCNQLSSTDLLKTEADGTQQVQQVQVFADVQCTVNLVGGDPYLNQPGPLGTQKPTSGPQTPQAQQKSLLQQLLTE

One may read the EC50 as the concentration needed to bring the measured effect to its halfway point. As to `COc1ccc(OC)c(NC(=S)NC(=O)c2ccc(Br)o2)c1`, the EC50 in test [1] was 0.01 µM (active).
Regarding `CC(CCc1ccccc1)NC(=O)CSc1nc(N)cc(N)n1` (configuration not stated), in [2], the EC50 is recorded as > 50 µM (not active).
On to `CC(NS(=O)(=O)c1ccc(CCC(=O)N2CCN(C)CC2)cc1)c1ccccc1` (configuration not stated), for which the values for the EC50 (in test [3]; in the test “cells”; in test [4]) were < 0.1 µM (active), 0.349 µM (active) and > 60 µM (not active), respectively.
As usually defined, the IC50 is the midpoint of a concentration-inhibition curve. Turning to `Cc1nn(Cc2ccc(Cl)cc2Cl)c(C)c1NC(=O)CCl`, the half-maximal effective concentration (EC50) in [5] is 12.1 µM (active); in the test on BJ [6] it was 8.35 µM (active); in the test with BJ [8], 21.2 µM (active); in the test with BJ [9] it was > 150 µM (inconclusive). Moreover, the IC50 in test [7] was 2.44 µM (active).
Broadly, the CC50 is the concentration giving 50% cytotoxicity. Turning to `O=C(CSc1nc2cccc(I)c2c(=O)n1-c1ccccc1)Nc1ccc2c(c1)CCC2`, the results for the CC50 with Vero [10] and in the test on Vero [11] were > 133 µM (active) and > 200 µM (active), respectively.
On to `O=C(c1cccc(-n2sc3ccccc3c2=O)c1)N1CCCCC1`, for which the IC50 in test [12] is 13.6 µM (active).
Turning to `O=C(Nc1nnc(-c2ccco2)s1)C1CCN(S(=O)(=O)c2ccc(Cl)cc2)CC1`, the values for the EC50 in test [13], in [14] and in test [16] were > 79.4 µM (not active), 56.6 µM (inactive) and 31.4 µM (not active), respectively. Also, in test [15], the IC50 is reported as > 50 µM (not active).
As a reminder, the AC50 is the concentration at which the activity in the assay is half-maximal. On to `C/C(=N\NC(=O)c1ccc(F)cc1)c1ccccn1`, for which the IC50 at Nonstructural protein 1 is 3 µM (active); in the test with Vero [18], > 25 µM (active); in test [19] it was 1.96 µM (active); in test [22] it was 0.54 µM (active). The EC50 in test [5] was 5.06 µM (active); in the test with BJ [17], 0.475 µM (active); in the test on BJ [6], 0.844 µM (inconclusive); on Beta-galactosidase, > 40 µM (inactive); with BJ [8] it was 1.98 µM (active); with BJ [9], 3.53 µM (active). Further, the CC50 in the test on Vero [20] is 2.98 µM (active); with Vero [21], 2.28 µM (active). Besides, in the test with INS1, the AC50 is 0.523 µM (active).
In the case of `CC(=N)/C(C#N)=C(/O)CSc1nnc(Cc2ccccc2F)n1N`, the IC50 against Estrogen receptor is > 50 µM (not active); at Estrogen receptor beta, 13.6 µM (active).
